# Values joined by “and” are separate entries in the source; they are usually repeats but may differ in a detail not shown here. Equal entries are not always repeated. Where two headings read alike, the source gives them in different places.
# Columns and labels:
# [1] = humans, cited from earlier work
# [2] = GMX001 plasma PTX concentration after systemic infusion (LC/MS); format: in vivo, porcine; conditions: pig; for concentration at 3 h: systemic infusion 175 mg/m^2 over 3 hours; for Cmax: iv, 175 mg/m2, systemic
# Protocol: The systemic studies were denoted GMX001 and local administration studies GMX002.
# For GMX001 (systemic), anatomy permitting, 2 animals were used and divided into a 3 hour animal and a 72 hour animal.
# (§1) For GMX001, both animals underwent surgery to place two (2) CVL catheters, 1 for infusion and 1 for plasma collection. The animals were allowed to recover and stabilize.
# [3] = GMX001 colon tissue PTX concentration after systemic infusion; format: in vivo, porcine; conditions: 3 hour animal 19P0837; for concentration at 3 h: pig, intravenous, 4.28 mg/kg/hr, Colon PTX concentration
# Source text: Three samples each were taken from the rectum, transverse (tran) colon, ascending (asc) colon, descending (desc) colon and colon lymph nodes (LN).
# [4] = GMX002 lung tissue PTX concentration after local lung lavage; format: in vivo, porcine; conditions: for concentration at 20 min: pig
# Protocol: A blood sample was also collected at 0, 5, 10, 15, and 20 minutes.
# (§2) Spectra were compared to the validated protocol and standard curve generated for the study.
# The acute animal (19P1241) and the chronic animal (19P0884) were sent to necropsy for gross pathology and tissue harvesting. Three full thickness lung tissue sample from each of the cranial (cran) caudal (caud) and middle (mid) lobes of the untreated left lung and three lung tissue samples from each of the cranial (cran) caudal (caud) and middle (mid) lobes of the treated right lung were taken from the 20 minute animal, frozen and sent for analytical analysis.
# [5] = GMX002 plasma PTX concentration after local lung lavage; format: in vivo, porcine
# Protocol: For GMX002 (local), anatomy permitting, 2 animals were divided into a 20 minute animal and a 72 hour animal.
# The necropsy for tissue collection was completed to obtain information on the drug concentration within the lung and lung lymph nodes.
# The chronic (72 hour) animal in the study was recovered with blood plasma samples collected immediately after infusion, followed by additional blood plasma collection occurring at 5, 15, and 30 minutes following infusion. More blood plasma was collected after 1, 3, 5, 9, 24, and 72 hours. The necropsy for tissue collection took place 72 hours after infusion with drug concentration measurements in the lung and lung lymph nodes. Histopathology was done on the lung.
# Animal 19P0844 was infused with 700 mL. Animal 19P1241 was infused with approximately 900 mL.
# Animal 19P1241 had 2 mL of blood collected at baseline and at 5, 10, 15 and 20 minutes of infusion. Plasma was collected for processing. Animal 19P0884 had 2 mL of blood collected at baseline, 5, 10, 15 and 20 minutes of infusion. Following infusion, blood was collected at 5, 15, 30 minutes with more blood being collected after 1, 3, 5, 9, 24, and 72 hours.
# [6] = Animal experiment, first pig: systemic paclitaxel, plasma and lung tissue concentration
# Protocol: (§3) A first pig was given 4.28 mg/kg/hr of paclitaxel systemically, i.e., intravenously over three hours. […] Next, the lung tissue in a second pig was saturated with paclitaxel via the airways by an endoluminal approach. […] The drug solution dwelled in the airways of the second animal for approximately 20 minutes to ensure saturation of the lung tissue before being evacuated from the airways.
# [7] = Animal experiment, second pig: endoluminal airway paclitaxel, lung tissue concentration; conditions: soaking solution 75.8 μM in airways, approximately 20 minutes dwell
# Protocol: as §3
# [8] = GMX001 lung and lung lymph node PTX concentration after systemic infusion
# Source text: (§4) The necropsy for tissue collection after the last plasma sample focused on drug concentration and included: lung, lung lymph nodes, colon, and the colon lymph nodes.
# as §2
# (§5) The acute animal (19P0837) and the chronic animal (19P0997) were sent to necropsy for gross pathology and tissue harvesting. Three full thickness lung tissue samples from each of the cranial (cran) caudal (caud) and middle (mid) lobes were frozen and sent for analytical analysis.
# [9] = format: in vivo, porcine
# Protocol: as §1
# Animal 19P0837 had 2 mL of blood collected at baseline and after the 3 hours infusion. […] Blood was processed and sent to Analytical for processing. […] The animal survived to the scheduled term with signs of discomfort as per technician's observations. The animal had blisters on the chest at day 3, prior to term.
# Gross examination of the lungs, colon, jejunum, regional lymph nodes, and collateral structures was conducted. […] Lungs were also slightly heavy. […] Small intestine appeared bloated diffusely. The lumen of darkened jejunum section appeared mottled dark purple to black. There were no other abnormal findings noted at necropsy.
# [10] = in vivo; conditions: pig, intravenous
# Source text: as §4, §2, §5
# [11] = humans; systemic administration; cited from earlier work
# [12] = Porcine local levofloxacin: pathology and side effects; format: in vivo
# Protocol: (§6) Porcine studies were performed similarly to as described in Example A but using levofloxacin as the drug agent. Only local administration to the lung was performed.
# [13] = pig, in vivo
# Protocol: as §6
# [14] = in vivo; conditions: pig
# Protocol: as §6
# [15] = local lavage of right lung, 20 min, animal 19P1241
# [16] = systemic, 3 hour animal 19P0837
# [17] = systemic, 72 hour animal 19P0997
# [18] = lung tissue (RT mid lung), 175 mg/m^2
smiles,measurement,setting,value
N.N.[Cl][Pt][Cl] [cisplatin],Cmax,"[1]; systemic administration, read-out: Typical plasma Cmax",30 µM
same,typical lung tissue Cmax,[1]; systemic delivery,170 µM
"CC(=O)O[C@H]1C(=O)[C@@]2(C)[C@H]([C@H](OC(=O)c3ccccc3)[C@]3(O)C[C@H](OC(=O)[C@H](O)[C@@H](NC(=O)c4ccccc4)c4ccccc4)C(C)=C1C3(C)C)[C@]1(OC(C)=O)CO[C@@H]1C[C@@H]2O [PTX, 5β,20-Epoxy-1,2α,4,7β,10β,13α-hexahydroxytax-11-en-9-one 4,10-diacetate 2-benzoate 13-ester with (2R,3S)-N-benzoyl-3-phenylisoserine]",concentration at 3 h,"[2]; intravenous, 175 mg/m^2, Blood PTX concentration, animal 19P0837, 3 hr",57000 ng/mL
same,concentration at 3 h,"[2]; intravenous, 175 mg/m^2, Blood PTX concentration, animal 19P0997, 3 hr",67100 ng/mL
same,concentration at 4 h,"[2]; intravenous, 175 mg/m^2, Blood PTX concentration, systemic infusion, animal 19P0997, 4 hr",43100 ng/mL
same,concentration at 6 h,"[2]; intravenous, 175 mg/m^2, Blood PTX concentration, systemic infusion, animal 19P0997, 6 hr",28500 ng/mL
same,concentration at 8 h,"[2]; intravenous, 175 mg/m^2, Blood PTX concentration, systemic infusion, animal 19P0997, 8 hr",27100 ng/mL
same,concentration at 12 h,"[2]; intravenous, 175 mg/m^2, Blood PTX concentration, systemic infusion, animal 19P0997, 12 hr",20500 ng/mL
same,concentration at 24 h,"[2]; intravenous, 175 mg/m^2, Blood PTX concentration, systemic infusion, animal 19P0997, 24 hr",9110 ng/mL
same,concentration at 72 h,"[2]; intravenous, 175 mg/m^2, Blood PTX concentration, systemic infusion, animal 19P0997, 72 hr",713 ng/mL
same,Cmax,[2]; 3 hour animal,57000 ng/mL
same,Cmax,[2]; 72 hour animal,67100 ng/mL
same,"Colon PTX concentration, asc colon",[3],16900 ng/g and 13200 ng/g
same,"Colon PTX concentration, colon LN",[3],12700 ng/g and 17700 ng/g
same,"Colon PTX concentration, desc colon",[3],12700 ng/g and 12800 ng/g
same,"Colon PTX concentration, rectum",[3],14100 ng/g and 16000 ng/g
same,"Colon PTX concentration, tran colon",[3],14600 ng/g and 13200 ng/g
same,concentration at 3 h,"[3]; ascending colon, asc colon",10800 ng/g
same,concentration at 3 h,"[3]; colon lymph nodes, colon LN",19600 ng/g
same,concentration at 3 h,"[3]; descending colon, desc colon",12500 ng/g
same,concentration at 3 h,[3]; rectum,14400 ng/g
same,concentration at 3 h,"[3]; transverse colon, tran colon",13500 ng/g
same,"Lung PTX concentration, RT caud lung",[4]; [15],35300 ng/g tissue and 29800 ng/g tissue
same,"Lung PTX concentration, RT cran lung",[4]; [15],32100 ng/g tissue and 38400 ng/g tissue
same,"Lung PTX concentration, RT Mid Lung","[4]; local lavage of right lung, 20 min, animal 19P1241, middle lobe believed blocked",760 ng/g tissue and 557 ng/g tissue
same,lower drug concentration with local vs systemic administration for same lung tissue uptake,[4]; local vs systemic,37 fold
same,concentration at 20 min,"[4]; lung tissue, other: local lung lavage (right lung, via catheter), 32000 ng/mL (lavage solution), PTX in lung tissue achieved, local administration (GMX002)",> 30000 ng/g
same,concentration at 20 min,"[4]; lung tissue, other: local lung lavage (right lung, via catheter), 32000 ng/mL (lavage solution), PTX per g of lung tissue, local, acute animal",~32000 ng/g
same,concentration at 20 min,"[4]; lung tissue, other: local lung lavage (right lung, via catheter), 32000 ng/mL (lavage solution), highest PTX level in lung tissue, local administration",38400 ng/g
same,concentration at 20 min,"[4]; lung, caudal lobe of the treated right lung, 32000 ng/mL, Lung PTX concentration, RT Caud Lung, local lavage of right lung, 20 min, animal 19P1241",34600 ng/g
same,concentration at 20 min,"[4]; lung, middle lobe of the treated right lung, 32000 ng/mL, Lung PTX concentration, RT Mid Lung, local lavage of right lung, 20 min, animal 19P1241, middle lobe believed blocked",749 ng/g
same,plasma Cmax local / systemic,[5]; […]57000 ng/mL,0.048%
same,plasma Cmax local / systemic,[5]; […]67100 ng/mL,0.041%
same,plasma Cmax for local administration as % of plasma Cmax with systemic administration,[5]; local vs systemic,less than 0.05%
same,plasma Cmax lower with local than with systemic administration,[5]; local vs systemic,more than 2000 fold
same,time of peak plasma concentration after end of lung infusion,"[5]; local, 32,000 ng/mL, after the lung was cleared of the drug",5 min
same,time of peak concentration of PTX in plasma after infusion initiation,"[5]; local, 72 hour animal 19P0844",25
same,Cmax,"[5]; pig, plasma, other: local lung lavage (right lung, via catheter), 32000 ng/mL (lavage solution), local, 5 minutes post local infusion, read-out: maximum concentration in plasma (Cmax)",27.6 ng/mL
same,maximum plasma concentration MPC,[6]; 4.28 mg/kg/hr intravenously over three hours,78.58 µM
same,average lung tissue concentration TC,[6]; samples immediately after systemic delivery,37.9 µM
same,average lung tissue concentration TC,[7],40.4 µM
same,decrease of lung PTX concentration 72 hours following systemic administration,[8]; 3 hour animal 19P0837 vs 72 hour animal 19P0997,approximately 3.5 fold
same,PTX in lung tissue achieved,[8]; systemic administration (GMX001),greater than 30000 ng/g
same,lung tissue concentration range,[8]; systemic drug delivery at 3 hours,"12,500-41,200 ng/g"
same,"Lung PTX concentration, RT caud lung",[8]; [16],28800 ng/g and 31600 ng/g
same,"Lung PTX concentration, RT cran lung",[8]; [16],27000 ng/g and 27300 ng/g
same,"Lung PTX concentration, RT mid lung",[8]; [16],41200 ng/g and 28300 ng/g
same,"Lung PTX concentration, RT caud lung",[8]; [17],2070 ng/g
same,"Lung PTX concentration, RT cran lung",[8]; [17],2660 ng/g
same,"Lung PTX concentration, RT mid lung",[8]; [17],2590 ng/g
same,"Lung PTX concentration, lung LN","[8]; systemic, 72 hour animal 19P0997, lung lymph node samples",4240 ng/g
same,early mortality,GMX002,no early mortality
same,Clinical observations,"pig, in vivo",GMX002: Unremarkable
same,Physical examination,"pig, in vivo",GMX002: Unremarkable
same,adverse events / clinical observations,"pig, in vivo",did not have any adverse events
same,distress or complications during administration,"pig, in vivo",did not show signs of distress or complications
same,gross necropsy findings,"pig, in vivo",no other abnormal findings noted at necropsy that could be attributed to the treatment
same,terminal clinical pathology,"pig, in vivo",clinical markers comparable to baseline
same,early mortality,[9]; GMX001,no early mortality
same,distress with infusion,"[9]; pig, in vivo",showed distress
same,terminal clinical pathology,"[9]; pig, in vivo","decrease in WBC, neutrophils, lymphocytes and platelet counts"
same,concentration at 72 h,"[10]; lung lymph node, 175 mg/m^2",4340 ng/g
same,concentration at 3 h,"[10]; lung tissue (RT caud lung), 175 mg/m^2",42900 ng/g
same,concentration at 3 h,"[10]; lung tissue (RT cran lung), 175 mg/m^2",32200 ng/g
same,concentration at 3 h,[10]; [18],32000 ng/g
same,concentration at 72 h,[10]; [18],3560 ng/g
same,concentration at 72 h,"[10]; lung, right caudal lobe, 4.28 mg/kg/hr",2720 ng/g
C[C@H]1COc2c(N3CCN(C)CC3)c(F)cc3c(=O)c(C(=O)O)cn1c23 [levofloxacin],Typical plasma Cmax,[11],5600 ng/mL
same,lung damage at pathology,[12]; following local delivery,No lung damage was observed
same,side effects,[12]; local delivery,no significant side effects
same,Sputum levels,[13],32 µg/mL
same,Cmax,[14],291 ng/mL

# — patent US20230073301A1, “TISSUE DOSING FOR INTRALUMINAL LOCAL DRUG DELIVERY” (ISOLA THERAPEUTICS, INC., priority 2020, published 2023)
